Source: the CombiSolv-Exp solvation set (Vermeire and Green 2021)

Experiment: solvent given as SMILES

ClC(Cl)(Cl)Cl
Details	solvation free energy, 298 K [kcal/mol]
in Brc1cccc2ccccc12	-3.92
in C1CCCC1	-4.4
in C1CCOC1	-4.65
in C1COCCO1	-4.32
in C=CCCCCCCCCCCCCCC	-3.81
in CC#N	-3.66
in CC(=O)CC(C)C	-4.22
in CC(=O)N(C)C	-4.52
in CC(=O)OCc1ccccc1	-3.97
in CC(C)(C)O	-3.74
in CC(C)=O	-4.15
in CC(C)CCCC(C)CCCC(C)CCCCC(C)CCCC(C)CCCC(C)C	-3.74
in CCC(C)=O	-4.15
in CCCCCC	-4.14
in CCCCCCC	-4.09
in CCCCCCCC	-3.98
in CCCCCCCCC=CCCCCCCCC(=O)OCC(COC(=O)CCCCCCCC=CCCCCCCCC)OC(=O)CCCCCCCC=CCCCCCCCC	-4
in CCCCCCCCCCCCCC	-3.8
in CCCCCCCCCCCCCCCC	-3.85
in CCCCCCCCCOC(=O)c1ccccc1C(=O)OCCCCCCCCC	-3.85
in CCCCCCCCN(CCCCCCCC)CCCCCCCC	-3.79
in CCCCCCCCO	-3.79
in CCCCCCO	-3.84
in CCCCCN(CCCCC)CCCCC	-3.96
in CCCCCl	-4.28
in CCCCN(C=O)CCCC	-4.11
in CCCCN(CCCC)CCCC	-3.84
in CCCCO	-3.87
in CCCCOC	-4.39
in CCCCOC(C)=O	-4.26
in CCCCOCC	-4.29
in CCCCOCCCC	-4.16
in CCCO	-3.75
in CCCOCCC	-4.25
in CCO	-3.74
in CCOC(=O)c1ccccc1C(=O)OCC	-3.77
in CCOC(C)=O	-4.23
in CCOCC	-4.41
in CI	-4.51
in CN1CCCC1=O	-4.16
in CNC(C)=O	-3.9
in CO	-3.66
in CS(C)=O	-3.66
in CSC	-4.63
in Cc1ccc(C)cc1	-4.35
in Cc1cccc(C)c1	-4.29
in Cc1ccccc1C	-4.34
in ClC(Cl)Cl	-4.43
in ClCCCl	-4.15
in NC=O	-2.16
in O	0.07
in O=C1CCCCC1	-4.32
in S=C=S	-4.52
in [2H]O[2H]	-0.62
in c1ccc2ncccc2c1	-4.07

CCCCCCCCC(C)=O
Details	solvation free energy, 298 K [kcal/mol]
in O	-2.34

C=CCCCCC
Details	solvation free energy, 298 K [kcal/mol]
in C1CCC2CCCCC2C1	-4.38
in C1CCC(C2CCCCC2)CC1	-4.33
in C=CCCCCCCCCCCCCCC	-4.16
in CC#N	-3.44
in CCC#N	-4.05
in CCCC#N	-3.78
in CCCCC(CC)COC(=O)CCCCC(=O)OCC(CC)CCCC	-4.03
in CCCCC(CC)COC(=O)c1ccccc1C(=O)OCC(CC)CCCC	-3.78
in CCCCCCC	-4.5
in CCCCCCCCC=CCCCCCCCC(=O)OCC(COC(=O)CCCCCCCC=CCCCCCCCC)OC(=O)CCCCCCCC=CCCCCCCCC	-4.07
in CCCCCO	-3.93
in CCCCOC(=O)c1ccccc1C(=O)OCCCC	-3.98
in CCCCOC(C)=O	-4.28
in CCN1CCCC1=O	-3.73
in CCOC(=O)c1ccccc1C(=O)OCC	-3.53
in CCOC(C)=O	-4.07
in CN1CCCC1=O	-3.46
in CN(C)C=O	-3.36
in CS(C)=O	-2.51
in N#CCCCCC#N	-2.8
in N#Cc1ccccc1	-3.92
in NC=O	-1.24
in NCCO	-1.63
in Nc1ccccc1	-3.24
in O	1.66
in O=C1CCCO1	-3
in O=CN1CCOCC1	-2.89
in O=Cc1ccco1	-3.2
in OCCO	-1.45
in OCCOCCO	-2.1
in OCCOCCOCCO	-2.27
in OCCOCCOCCOCCO	-2.4
in OCc1ccco1	-3.1
in c1ccc2c(c1)CCCC2	-4.37
in c1ccc(C2CCCCC2)cc1	-4.31
